Results: US20260335468A1, “MOLECULAR RADIOAFTERGLOW PROBES FOR CANCER RADIODYNAMIC THERANOSTICS” (NANYANG TECHNOLOGICAL UNIVERSITY, priority 2023, published 2026)

Tests used:
[1] = Radio afterglow spectra, intensity and half-life of luminophores in PBS after X-ray; type: physicochemical; details: for radio afterglow brightness / intensity: X-ray irradiation; for radio afterglow intensity increase versus iodine-free counterpart: 100 μM, PBS pH 7.4, 50% DMSO, X-ray 5 mGy
Experimental: The optical properties of DPAs and IDPAs were investigated in an aqueous solution (FIGS. 2 and 3). […] Their half-lives ranged from 9.2 to 196.8 min (FIG. 4e).
DPAs or IDPAs (100 μM) in 0.01 M PBS (pH 7.4, 50% DMSO) were irradiated by X-rays at 250 μGy s^−1 for 20 s (total, 5 mGy) under the specific setup parameter of 10 kV and 75 μA. Then, the radio afterglow signal was collected with an IVIS imaging system under the bioluminescence mode with an open filter and an acquisition time of 60 s. Finally, the radio afterglow intensities were quantified by a region-of-interest analysis using Living Image 4.3 software. In addition, the radio afterglow spectra of the candidates were acquired under the same test conditions with specific emission filters, and time courses of the signal were recorded as a function of time.

[2] = ^1O2 generation upon X-ray irradiation (ESR, TEMP trap); type: physicochemical; details: for ^1O2 generation / radiodynamic activity: X-ray irradiation, ESR
Experimental: To study ^1O2 generation, a mixture of DPAS or IDPAS (100 M) and TEMP (10 mM) in PBS (0.01 M, pH 7.4, 50% DMSO) was irradiated by X-rays at 2 Gy (100 mGy s^−1 for 20 s) or 5 mGy (250 μGy s^−1 for 20 s). The ESR signals of the mixture were recorded with a Bruker A300 instrument. The ESR signal of the free radical 2,2,6,6-tetramethyl-1-piperidinyloxyl (g=2.0060) was generated by the reaction of ^1O2 with TEMP. The ^1O2 quencher NaN3 (1 mM) was added to validate the afterglow mechanism of IDPASu. Additionally, other commercially available radio sensitizers (such as acridine orange, hematoporphyrin and verteporfin) were measured and compared. The procedure of block depths was similar to that of the tissue penetration depth study and the ^1O2 generation for different depth tissues was measured. The ESR signal changes of MRAP in the absence or presence of CatB were measured in a similar way. The ESR signals of 2,2,6,6-tetramethyl-1-piperidinyloxyl from the reaction of ^1O2 with TEMP were plotted as a function of the concentration of ^1O2, which was generated by the addition of NaOCl to H2O2. This generated the standard curve between the ESR intensity and ^1O2 concentration.

Row | SMILES | radio afterglow brightness / intensity [1] | ^1O2 generation / radiodynamic activity [2] | ^1O2 generation versus that of IDPAs ([2]; X-ray 5 mGy) | radio afterglow intensity increase versus iodine-free counterpart [1]
1 | COC(=C1C2CC3CC(C2)CC1C3)c1c(/C=C/C2=CC(=C(C#N)C#N)c3ccccc3O2)cc(I)c(O)c1I [DIDPAO] | extremely low | slightly increase |  | 
2 | COC(=C1C2CC3CC(C2)CC1C3)c1c(/C=C/C2=CC(=C(C#N)C#N)c3ccccc3S2)cc(I)c(O)c1I [DIDPAS] | extremely low | slightly increase | ~ 1.2 fold | 
3 | COC(=C1C2CC3CC(C2)CC1C3)c1cc(O)ccc1/C=C/C1=CC(=C(C#N)C#N)c2ccccc2S1 [DPASu, DBTP-phenoxy-adamantylidene] |  | generation of ^1O2 |  | 
4 | COC(=C1C2CC3CC(C2)CC1C3)c1cc(O)c(I)cc1/C=C/C1=CC(=C(C#N)C#N)c2ccccc2O1 [IDPAO] |  |  |  | ~ 1.62 fold
5 | COC(=C1C2CC3CC(C2)CC1C3)c1cc(O)c(I)cc1/C=C/C1=CC(=C(C#N)C#N)c2ccccc2[Se]1 [IDPASe] |  |  |  | 6.65 fold
